According to patent publication US20260373294A1, “PHARMACEUTICAL COMPOSITIONS COMPRISING A PSYCHEDELIC DRUG AND A DENDRITIC NANOCARRIER” (priority 2023, published 2026):
“Also recorded” adds a separate entry of the source. Read-outs that look alike come from different tables or passages of the source.

Experiments:
[1] = cited from earlier work
5-HT2A receptor = details: cited from earlier work
[2] = system: N-methyl-D-aspartate receptor (NMDAR); details: cited from earlier work
[3] = Diffusion cell tests with porcine oral mucosa (Franz cells) (Example 8); type: in vitro ADME; details: 2.5% DendroSol; 0.025 mg/100 μL LSD
Protocol: FIG. 3 Diffusion cell tests with psilocin, LSD and MDMA in Franz cells in the absence and presence of carrier. The tests were carried out with porcine oral mucosa as described in Example 8 below. Each carrier formulation was used on four diffusion cells each. In the graphic, mean values are shown.
Diffusion cell tests were carried out with porcine oral mucosa. Porcine mucosa was freshly prepared and kept in physiological buffer at pH 7.2 at temperatures between 2-8 °C for less than 36 h prior the experiment. The prepared oral mucosa thickness was 0.4-0.65 mm. Concentrations were determined by HPLC-UV. Four diffusion cells with a surface area of 0.54 cm^2 and an acceptor volume of 12.7 mL were used in the experiments for each formulation. Drug-carrier solutions wherein the solvent was water were prepared by either dissolving the drug in ethanol in a glass beaker, letting the ethanol evaporate under high vacuum and then dissolving the drug in the buffered nanocarrier solution. Alternatively, the drug was mixed with the carrier in ethanol in final conditions, the resulting mixture was dried under high vacuum in case of psilocin and afterwards re-dissolved in purified HPLC water.
Each carrier formulation was used on four diffusion cells each. In the graphic, the results were averaged.
Acceptor medium was physiological NaCl solution which was phosphate-buffered to pH 7.2. […]

[4] = Exemplary stability experiment, visual grading of psilocin samples with carriers or stabilizers (Example 6); type: physicochemical; set-up: key to stability, visually graded, under Vacuum at 25 °C / stability, visually graded, at room temperature exposed to air / stability, visually graded, at 50 °C, exposed to air: 0: dark precipitate visible = not stable; 1: discolored = moderately stabilized; 2: slightly discolored = stabilized; 3: transparent = highly stabilized
Description: Psilocin was mixed with two different batches of CMS carrier (DendroSol®), two different batches of dendritic succinate (hPG-succ, one of which had 25% substitution with succinate, the other one 100%) and two different batches of dendritic succinate functionalized with nalbuphine as anchor molecule (liked via an ester), as well as dendritic succinate deprotonized with NaOH. For comparison, we also mixed psilocin with known stabilizers oxalic acid and ascorbic acid (vitamin C), as well as mixtures of vitamin C with the carriers named above. One sample of pure psilocin solution was kept as a reference.
All samples contained 5 mg/L of psilocin and 2.5 wt % of carrier (for carriers mixed with oxalic acid or vitamin C, the total concentration of additives was 2.5 wt %). In the second part of the experiment, the carrier concentration was varied between 0.6 and 3 wt %.

[5] = cited from earlier work; remark: listed apart in the source
[6] = intravenous administration of psilocybin; US2022370413A1; cited from earlier work
[7] = taken by mouth; cited from earlier work

Question: Which “antidepressant potency and duration, relative” value ([1]; (R)-ketamine relative to (S)-ketamine) does the source give for `CN[C@@]1(c2ccccc2Cl)CCCCC1=O` [(R)-ketamine] here?
Answer: Its value is “more long-lasting; also recorded: greater potency and longer-lasting antidepressive effects”.

Question: With `COc1cc(CCN)cc(OC)c1OC` [mescaline] as the compound, how does the 5-HT2A receptor agonism (5-HT2A receptor) read?
Answer: Its 5-HT2A receptor agonism is 5-HT2A receptor agonists.

Question: With `CNC1(c2ccccc2Cl)CCCCC1=O` (stereo not shown) [ketamine] as the compound, how does the “NMDAR antagonism / interaction” value [2] read?
Answer: The value was “antagonist of the N-methyl-D-aspartate receptor”.

Question: With `CNC1(c2ccccc2Cl)CCCCC1=O` (racemic) [(R,S)-ketamine] as the compound, how does the “effect in treatment-resistant PTSD” value ([1]; patients with treatment-resistant post-traumatic stress disorder) read?
Answer: The value was “beneficial effects”.

Question: What about the antidepressant effect ([1]; treatment-resistant MDD or BD, single or repeated intravenous infusions, 0.5 mg/kg) of the same compound?
Answer: Its antidepressant effect is “robust antidepressant and antisuicidal effects”.

Question: And the “NMDAR antagonism / interaction” value [2]?
Answer: The value was “antagonist of the NMDAR”.

Question: With `CN[C@]1(c2ccccc2Cl)CCCCC1=O` [(S)-ketamine] as the compound, how does the “NMDAR antagonism / interaction” value [2] read?
Answer: Its value is “stronger”.

Question: With `CCN(CC)C(=O)[C@@H]1C=C2c3cccc4[nH]cc(c34)C[C@H]2N(C)C1` [LSD] as the compound, how does the “effect of carrier on diffusion rate, water vs ethanol as solvent” value [3] read?
Answer: The value was “the effect was greater when water was used as solvent than with use of ethanol as solvent”.

Question: What about the 5-HT2A receptor agonism (5-HT2A receptor; listed as (+) lysergide) of the same compound?
Answer: Its 5-HT2A receptor agonism is “partial agonist with a high affinity to this receptor”.

Question: What about the 5-HT2A receptor agonism (5-HT2A receptor; listed as lysergide) of the same compound?
Answer: The 5-HT2A receptor agonism was 5-HT2A receptor agonists.

Question: For `CN(C)CCc1c[nH]c2cccc(O)c12` [Psilocin], which “stability, visually graded, at 50 °C, exposed to air” value ([4]; 50 °C, exposed to air, all samples contain psilocin (5 mg/L) and 2.5 wt % carrier/additive) is on record?
Answer: Its value is 0.

Question: And the “stability of psilocin, conclusion” value ([4]; conclusion in words)?
Answer: The value was “could be significantly improved by adding the right carriers”.

Question: What about the “effectiveness of carriers for stabilizing psilocin (ranking)” value ([4]; order of effectiveness, lowest first) of the same compound?
Answer: The value was “pure psilocin<CMS carrier (DendroSol®)<oxalic acid<dendritic succinate (25%)<dendritic succinate (100%)=functionalized dendritic succinate=dendritic succinate deprotonized with NaOH”.

Question: And the “stability, visually graded, at room temperature exposed to air” value ([4]; room temperature, exposed to air, all samples contain psilocin (5 mg/L) and 2.5 wt % carrier/additive)?
Answer: Its value is 0.

Question: What about the “stability, visually graded, under Vacuum at 25 °C” value ([4]; under vacuum at 25 °C, all samples contain psilocin (5 mg/L) and 2.5 wt % carrier/additive) of the same compound?
Answer: Its value is 3.

Question: And the “stability in biological samples” value ([5]; blood or urine)?
Answer: Its value is “unstable and is degraded fast by both non-enzymatic and enzymatic processes”.

Question: What about the “stability in ambient and aqueous environments” value ([5]; exposed to air and aqueous) of the same compound?
Answer: Its value is “poor stability due to photodegradation and oxidation”.

Question: And the “peak loss over 14 days” value ([5]; psilocin sample protected from light, 14 days)?
Answer: Its value is 50%.

Question: What about the 5-HT2A receptor agonism (5-HT2A receptor) of the same compound?
Answer: The 5-HT2A receptor agonism was 5-HT2A receptor agonists.

Question: With `CN(C)CCc1c[nH]c2cccc(OP(=O)(O)O)c12` [psilocybin] as the compound, how does the “variation of maximum plasma concentrations of psilocin between individuals” value [6] read?
Answer: Its value is “can vary over three-fold between individuals”.

Question: Which results are given for `CNC(C)Cc1ccc2c(c1)OCO2` (stereo not shown) [MDMA, 3,4-methylenedioxymethamphetamine]?
Answer: duration of effects [7]: 3 to 6 h; onset of effects [7]: 30 to 45 min
